In patent publication US20230348424A1, “HETEROCYCLIC COMPOUNDS AND METHODS OF USE” (Schrödinger, Inc., priority 2022, published 2023):

How the values were obtained:
[1] = biological target: SOS1:KRAS (G12C) interaction (Homo sapiens (Human), UniProt Q07889); experiment: SOS1 KRas(G12C) FRET Assay; type: binding; conditions: 0.5 nM His10-SOS1 (res. 564-1049), 2.5 nM GST-KRAS G12C (res. 1-169), 2 hrs at RT
How it was run: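 GST-KRAS G12C (res. 1-169) at 2.5 nM and His10-SOS1 (res. 564-1049) at 0.5 nM, final, in PBS with 0.1% BSA, 5 mM MgCl2, 100 mM KF, 5 mM DTT and 0.5% DMSO. After 2 h at RT, FRET read at 665/615 nm and normalized to DMSO and no-SOS1 controls. IC50 by non-linear regression.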

human SOS1 = human SOS1 (Homo sapiens (Human), UniProt Q07889); experiment: Surface Plasmon Resonance (SPR) SOS1 Binding Assay; conditions: biotinylated SOS1 (res. 564-1049), Biacore 8K, 25° C., kinetic or steady state fit, 1:1 binding; read-out: hSOS1 KD
How it was run: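 Biotinylated Avi-tagged human SOS1 (res. 564-1049) captured on streptavidin chip (~3,000 RU); compounds injected 60 s, dissociation 600 s, at 25° C in Tris pH 8.0 buffer with 5% DMSO. Reference- and blank-subtracted; KD from kinetic or steady-state 1:1 binding fit.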

Chain of SOS1:KRAS (G12C) interaction (Q07889 564-1049, stated change not applied): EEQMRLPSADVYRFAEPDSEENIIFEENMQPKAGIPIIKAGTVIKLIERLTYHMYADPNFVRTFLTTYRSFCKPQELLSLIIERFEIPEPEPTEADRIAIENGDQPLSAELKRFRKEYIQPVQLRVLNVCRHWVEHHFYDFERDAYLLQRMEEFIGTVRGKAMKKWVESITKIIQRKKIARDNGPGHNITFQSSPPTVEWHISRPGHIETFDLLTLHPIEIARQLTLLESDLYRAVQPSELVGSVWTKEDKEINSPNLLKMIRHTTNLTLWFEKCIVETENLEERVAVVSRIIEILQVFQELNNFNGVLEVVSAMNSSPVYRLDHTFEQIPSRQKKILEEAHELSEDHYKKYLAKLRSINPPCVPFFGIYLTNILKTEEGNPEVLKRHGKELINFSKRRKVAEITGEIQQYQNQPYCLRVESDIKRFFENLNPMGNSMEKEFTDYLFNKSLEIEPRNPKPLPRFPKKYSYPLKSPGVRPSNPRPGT
Chain of human SOS1 (Q07889 564-1049): as the sequence (Q07889 564-1049, stated change not applied) above

Compound	IC50 [1] [nM]	Kd (human SOS1) [nM]
C[C@@H](NC(=O)c1cn(C2CCOC(C)(C)C2)c(=O)cc1N[C@H]1[C@@H]2CN(C)C[C@@H]21)c1cccc(C(F)F)c1F (stereo partly drawn) [Example 122, N-((R)-1-(3-(difluoromethyl)-2-fluorophenyl)ethyl)-1-(2,2-dimethyltetrahydro-2H-pyran-4-yl)-4-(((1R,5S,6s)-3-methyl-3-azabicyclo[3.1.0]hexan-6-yl)amino)-6-oxo-1,6-dihydropyridine-3-carboxamide]	17.4	9
C[C@@H](NC(=O)c1cn(C2CC3(C2)CC(F)(F)C3)c(=O)cc1N[C@@H]1CCN(C)C[C@@H]1F)c1cccc(C(F)F)c1F [Example 126, N-((R)-1-(3-(difluoromethyl)-2-fluorophenyl)ethyl)-1-(6,6-difluorospiro[3 .3]heptan-2-yl)-4-(((3S,4R)-3-fluoro-1-methylpiperidin-4-yl)amino)-6-oxo-1,6-dihydropyridine-3-carboxamide]	4.4	2
C[C@@H](NC(=O)c1cn(C2CC3(C2)CC(F)(F)C3)c(=O)cc1N[C@H]1CCN(C)C[C@H]1F)c1cccc(C(F)F)c1F [Example 127, N-((R)-1-(3-(difluoromethyl)-2-fluorophenyl)ethyl)-1-(6,6-difluorospiro[3 .3]heptan-2-yl)-4-(((3R,4S)-3-fluoro-1-methylpiperidin-4-yl)amino)-6-oxo-1,6-dihydropyridine-3-carboxamide]	3	3
C[C@@H](NC(=O)c1cn([C@@H]2CCOC[C@H]2F)c(=O)cc1N[C@H]1[C@@H]2CN(C)C[C@@H]21)c1cccc(C(F)F)c1F [Example 128, N-((R)-1-(3-(difluoromethyl)-2-fluorophenyl)ethyl)-1-((3S,4R)-3-fluorotetrahydro-2H-pyran-4-yl)-4-(((1R,5S,6s)-3-methyl-3-azabicyclo[3.1.0]hexan-6-yl)amino)-6-oxo-1,6-dihydropyridine-3-carboxamide]	8.2	3
C[C@@H](NC(=O)c1cn([C@H]2CCOC[C@@H]2F)c(=O)cc1N[C@H]1[C@@H]2CN(C)C[C@@H]21)c1cccc(C(F)F)c1F [Example 129, N-((R)-1-(3-(difluoromethyl)-2-fluorophenyl)ethyl)-1-((3R,4S)-3-fluorotetrahydro-2H-pyran-4-yl)-4-(((1R,5S,6s)-3-methyl-3-azabicyclo[3.1.0]hexan-6-yl)amino)-6-oxo-1,6-dihydropyridine-3-carboxamide]	25	8
C[C@@H](NC(=O)c1cn(C23CC(C2)C3)c(=O)cc1N[C@H]1C[C@@H](N(C)C)C1)c1cccc(C(F)F)c1F [Example 133, 1-(bicyclo[1.1.1]pentan-1-yl)-N-((R)-1-(3-(difluoromethyl)-2-fluorophenyl)ethyl)-4-(((1s,3S)-3-(dimethylamino)cyclobuty 1)amino)-6-oxo-1,6-dihydropyridine-3-carboxamide]	23.2	11
C[C@@H](NC(=O)c1cn(C23CC(F)(C2)C3)c(=O)cc1NC1[C@@H]2CC[C@H]1CN(C)C2)c1cccc(C(F)F)c1F (stereo partly drawn) [Example 136, N-((R)-1-(3-(difluoromethyl)-2-fluorophenyl)ethyl)-1-(3-fluorobicyclo[1.1.1]pentan-1-yl)-4-(((1R,SS,8s)-3-methyl-3-azabicyclo[3.2.1]octan-8-yl)amino)-6-oxo-1,6-dihydropyridine-3-carboxamide]	6	3
C[C@@H](NC(=O)c1cn(C23CC(F)(C2)C3)c(=O)cc1NC1[C@@H]2CC[C@H]1CN(C)C2)c1cccc(C(F)F)c1F (stereo partly drawn) [Example 137, N-((R)-1-(3-(difluoromethyl)-2-fluorophenyl)ethyl)-1-(3-fluorobicyclo[1.1.1]pentan-1-yl)-4-(((1R,5S,8r)-3-methyl-3-azabicyclo[3.2.1]octan-8-yl)amino)-6-oxo-1,6-dihydropyridine-3-carboxamide]	35.3	27
C[C@@H](NC(=O)c1cn(C23CC(F)(C2)C3)c(=O)cc1N[C@H]1CCN(C)C[C@H]1F)c1cccc(C(F)F)c1F [Example 142, N-((R)-1-(3-(difluoromethyl)-2-fluorophenyl)ethyl)-4-(((3R,4S)-3-fluoro-1-methylpiperidin-4-yl)amino)-1-(3-fluorobicyclo[1.1.1]pentan-1-yl)-6-oxo-1,6-dihydropyridine-3-carboxamide]	4.9	4
C[C@@H](NC(=O)c1cn(C23CC(F)(C2)C3)c(=O)cc1N[C@@H]1CCN(C)C[C@@H]1F)c1cccc(C(F)F)c1F [Example 143, N-((R)-1-(3-(difluoromethyl)-2-fluorophenyl)ethyl)-4-(((3S,4R)-3-fluoro-1-methylpiperidin-4-yl)amino)-1-(3-fluorobicyclo[1.1.1]pentan-1-yl)-6-oxo-1,6-dihydropyridine-3-carboxamide]	3.8	3
C[C@@H](NC(=O)c1cn([C@H]2CCC2(F)F)c(=O)cc1NCC1(F)CN(C)C1)c1cccc(C(F)F)c1F [Example 146, 1-((S)-2,2-difluorocyclobutyl)-N-((R)-1-(3-(difluoromethyl)-2-fluorophenyl)ethyl)-4-(((3-fluoro-1-methylazetidin-3-yl)methyl)amino)-6-oxo-1,6-dihydropyridine-3-carboxamide]	5.4	9
C[C@@H](NC(=O)c1cn([C@@H]2CCC2(F)F)c(=O)cc1NCC1(F)CN(C)C1)c1cccc(C(F)F)c1F [Example 147, 1-((R)-2,2-difluorocyclobutyl)-N-((R)-1-(3-(difluoromethyl)-2-fluorophenyl)ethyl)-4-(((3-fluoro-1-methylazetidin-3-yl)methyl)amino)-6-oxo-1,6-dihydropyridine-3-carboxamide]	45	73

Next, values leading:

IC50 [1] [nM]	Kd (human SOS1) [nM]	Compound
28.9	21	C[C@@H](NC(=O)c1cn(C2(C(F)F)CC2)c(=O)cc1N[C@H]1[C@@H]2CN(C)C[C@@H]21)c1cccc(C(C)(F)F)c1F [Example 121, N-((R)-1-(3-(1,1-difluoroethyl)-2-fluorophenyl)ethyl)-1-(1-(difluoromethyl)cyclopropyl)-4-(((1R,5S,6s)-3-methyl-3-azabicyclo[3.1.0]hexan-6-yl)amino)-6-oxo-1,6-dihydropyridine-3-carboxamide]
23.1	15	C[C@@H](NC(=O)c1cn(C2CCC(F)(F)CC2)c(=O)cc1N[C@H]1[C@@H]2CN(C)C[C@@H]21)c1cccc(C(F)F)c1F [Example 123, 1-(4,4-difluorocyclohexyl)-N-((R)-1-(3-(difluoromethyl)-2-fluorophenyl)ethyl)-4-(((1R,5S,6s)-3-methyl-3-azabicyclo[3.1.0]hexan-6-yl)amino)-6-oxo-1,6-dihydropyridine-3-carboxamide]
27.7	13	C[C@@H](NC(=O)c1cn(C2(C(F)F)CC2)c(=O)cc1N[C@H]1C[C@@H]2CN(C)C[C@@H]2C1)c1cccc(C(F)F)c1F [Example 125, N-((R)-1-(3-(difluoromethyl)-2-fluorophenyl)ethyl)-1-(1-(difluoromethyl)cyclopropyl)-4-(((3aR,5s,6aS)-2-methyloctahydrocyclopenta[c]pyrrol-5-yl)amino)-6-oxo-1,6-dihydropyridine-3-carboxamide]
26.7	23	C[C@@H](NC(=O)c1cn(C2(C(F)F)CC2)c(=O)cc1N[C@H]1[C@@H]2CN(C)C[C@@H]21)c1cccc(C(F)(F)F)c1F [Example 130, 1-(1-(difluoromethyl)cyclopropyl)-N-((R)-1-(2-fluoro-3-(trifluoromethyl)phenyl)ethyl)-4-(((1R,5S,6s)-3-methyl-3-azabicyclo[3.1.0]hexan-6-yl)amino)-6-oxo-1,6-dihydropyridine-3-carboxamide]
22.1	17	C[C@@H](NC(=O)c1cn(C2(C(F)F)CCC2)c(=O)cc1N[C@H]1[C@@H]2CN(C)C[C@@H]21)c1cccc(C(F)F)c1F [Example 131, N-((R)-1-(3-(difluoromethyl)-2-fluorophenyl)ethyl)-1-(1-(difluoromethyl)cyclobuty 1)-4-(((1R,5S,6s)-3-methyl-3-azabicyclo[3.1.0]hexan-6-yl)amino)-6-oxo-1,6-dihydropyridine-3-carboxamide]
10.3	8	C[C@@H](NC(=O)c1cn(C23CCC(CC2)C3)c(=O)cc1N[C@H]1[C@@H]2CN(C)C[C@@H]21)c1cccc(C(F)F)c1F [Example 132, 1-(bicyclo[2.2.1]heptan-1-yl)-N-((R)-1-(3-(difluoromethyl)-2-fluorophenyl)ethyl)-4-(((1R,5S,6s)-3-methyl-3-azabicyclo[3.1.0]hexan-6-yl)amino)-6-oxo-1,6-dihydropyridine-3-carboxamide]
7.4	4	C[C@@H](NC(=O)c1cn([C@]2(C)CCOC2)c(=O)cc1N[C@H]1[C@@H]2CN(C)C[C@@H]21)c1cccc(C(F)F)c1F [Example 152, N-((R)-1-(3-(difluoromethyl)-2-fluorophenyl)ethyl)-4-(((1R,5S,6s)-3-methyl-3-azabicyclo[3.1.0]hexan-6-yl)amino)-1-((R)-3-methyltetrahydrofuran-3-yl)-6-oxo-1,6-dihydropyridine-3-carboxamide]
